Legend:
Strain 103Nt.4 = assay: Antibiotic sensitivity (susceptibility test disks on Medium A agar); type: cell-based; details: antibiotic disks (contents in Appendix C), 37° C., up to 14 days
Procedure: (§1) A light suspension of bacteria in alkaline, saline, nutrient broth was spread on the surface of alkaline nutrient, saline agar (Medium A) and allowed to dry. Commercially available antibiotic susceptibility test disks (Oxoid or Mast Laboratories: Merseyside, U.K.) were applied to the agar surface. The bacteria were cultivated at 37° C. for up to 14 days. Clear zones around the antibiotic disks indicated sensitivity and were recorded as positive.

Strain 31M.4 = assay: as above; type: cell-based; details: antibiotic disks (contents in Appendix C), 37° C., up to 14 days
Procedure: as §1

Strain 86M.4 = assay: as above; type: cell-based; details: antibiotic disks (contents in Appendix C), 37° C., up to 14 days
Procedure: as §1

Strain 931LM.4 = assay: as above; type: cell-based; details: antibiotic disks (contents in Appendix C), 37° C., up to 14 days
Procedure: as §1

Strain 93dLM.4 = assay: as above; type: cell-based; details: antibiotic disks (contents in Appendix C), 37° C., up to 14 days
Procedure: as §1

Strain 95LM.4 = assay: as above; type: cell-based; details: antibiotic disks (contents in Appendix C), 37° C., up to 14 days
Procedure: as §1

Strain 98Nt.4 = assay: as above; type: cell-based; details: antibiotic disks (contents in Appendix C), 37° C., up to 14 days
Procedure: as §1

[1] = system: Cluster 1 haloalkaliphilic bacteria; assay: Antibiotic sensitivity, distribution of positive characters; type: cell-based; details: share of strains of cluster 1 (78.5% similarity level, SSM) scored positive = clear zone around antibiotic disk; Medium A agar, 37° C., up to 14 days
Procedure: as §1

[2] = system: Cluster 2 haloalkaliphilic bacteria; assay: as above; type: cell-based; details: share of strains of cluster 2 (78.5% similarity level, SSM) scored positive = clear zone around antibiotic disk; Medium A agar, 37° C., up to 14 days
Procedure: as §1

[3] = system: Cluster 3 haloalkaliphilic bacteria; assay: as above; type: cell-based, haloalkaliphilic eubacteria; details: share of strains of cluster 3 (78.5% similarity level, SSM) scored positive = clear zone around antibiotic disk; Medium A agar, 37° C., up to 14 days
Procedure: as §1

[4] = system: Cluster 4 haloalkaliphilic bacteria; assay: as above; type: cell-based, haloalkaliphilic eubacteria; details: share of strains of cluster 4 (78.5% similarity level, SSM) scored positive = clear zone around antibiotic disk; Medium A agar, 37° C., up to 14 days
Procedure: as §1

| SMILES | Inhibition of growth by antibiotic (Strain 103Nt.4) | Inhibition of growth by antibiotic (Strain 31M.4) | Inhibition of growth by antibiotic (Strain 86M.4) | Inhibition of growth by antibiotic (Strain 931LM.4) | Inhibition of growth by antibiotic (Strain 93dLM.4) | Inhibition of growth by antibiotic (Strain 95LM.4) | Inhibition of growth by antibiotic (Strain 98Nt.4) | Distribution of positive characters: antibiotic sensitivity, Cluster 1 [1] | Distribution of positive characters: antibiotic sensitivity, Cluster 2 [2] | Distribution of positive characters: antibiotic sensitivity, Cluster 3 [3] | Distribution of positive characters: antibiotic sensitivity, Cluster 4 [4] |
| --- | --- | --- | --- | --- | --- | --- | --- | --- | --- | --- | --- |
| CC[C@H]1OC(=O)[C@H](C)[C@@H](O[C@H]2C[C@@](C)(OC)[C@@H](O)[C@H](C)O2)[C@H](C)[C@@H](O[C@@H]2O[C@H](C)C[C@H](N(C)C)[C@H]2O)[C@](C)(O)C[C@@H](C)C(=O)[C@H](C)[C@@H](O)[C@]1(C)O [erythromycin] | not inhibited | inhibited | inhibited | inhibited | inhibited | inhibited | inhibited | 86 | 73 | 100 | 100 |
| CO[C@@H]1[C@@H](OC(N)=O)[C@@H](O)[C@H](Oc2ccc3c(O)c(NC(=O)c4ccc(O)c(CC=C(C)C)c4)c(=O)oc3c2C)OC1(C)C [novobiocin] | inhibited | inhibited | inhibited | inhibited | inhibited | inhibited | inhibited | 100 | 82 | 33 | 100 |
| CC1(C)S[C@@H]2[C@H](NC(=O)[C@H](N)c3ccccc3)C(=O)N2[C@H]1C(=O)O [ampicillin] | inhibited | inhibited | not inhibited | inhibited | inhibited | inhibited | not inhibited | 0 | 0 | 100 | 67 |
| [H]/N=C(/N)N[C@H]1[C@H](O)[C@@H](O)[C@H](O[C@@H]2O[C@@H](C)[C@](O)(C=O)[C@H]2O[C@@H]2O[C@@H](CO)[C@H](O)[C@@H](O)[C@@H]2NC)[C@@H](N/C(N)=N\[H])[C@@H]1O [streptomycin] | inhibited | inhibited | not inhibited | inhibited | not inhibited | not inhibited | not inhibited | 0 | 18 | 67 | 0 |
